Data as given in patent publication US11066363B2, “Substituted 6,11-dihydro-5H-benzo[B]carbazoles as inhibitors of ALK and SRPK” (Dana-Farber Cancer Institute, Inc., priority 2015, dated 2021).
Like-named read-outs stand apart in the source and are kept apart here.

Tests used:
[1] = tested on: DFCI76 (L1152R) cells (NSCLC); type: cell-based; conditions: read-out: IC50 Tumor Cell Line DFCI76 (L1152R)
[2] = tested on: H3122 cells (NSCLC); type: cell-based; conditions: Homo sapiens
[3] = target: SRPK1 (Homo sapiens (Human), UniProt Q96SB4); test: SRPK1 inhibitory activity; type: biochemical
[4] = target: SRPK2 (Homo sapiens (Human), UniProt P78362); test: SRPK2 inhibitory activity; type: biochemical
[5] = target: CD74-ROS transduced Ba/F3 cells (Homo sapiens, UniProt P08922); test: Ba/F3 proliferation assay; type: cell-based; conditions: read-out: IC50 Ba/F3 CD74-ROS; Table 6
From the text: (§1) The MTS assay is a colorimetric method for determining the number of viable cells that is based on the bioreduction of MTS by cells to a formazan product that is soluble in cell culture medium and can be detected spectrophotometrically. […] All experimental points were set up in six wells and all experiments were repeated at least three times. […] The curves were fitted using a non-linear regression model with a sigmoidal dose response.

[6] = tested on: mutant EGFR PC9 cell line; conditions: in words
Method: Cell viability was evaluated using CellTiter-Glo Luminescent Cell Viability Assay (Promega) following manufacturer's instruction. IC50 values were calculated by nonlinear regression (variable slope) using GraphPad Prism 5 software. Each experiment was repeated for at least twice.

[7] = target: del19EGFR transduced Ba/F3 cells (Homo sapiens, UniProt P00533, cells depend on it, form not given); test: Ba/F3 proliferation assay; type: cell-based; conditions: read-out: IC50 Ba/F3 del19EGFR; Table 6
[8] = target: EML4-ALK S1206Y transformed Ba/F3 cells (Homo sapiens, UniProt Q9UM73, S1206Y, cells depend on it); test: Ba/F3 dose escalation MTS viability assay; type: cell-based; conditions: 72 hours
From the text: as §1
(§2) Untransduced Ba/F3 control was used as a cytotoxicity control.

[9] = target: EML4-ALK L1152R transformed Ba/F3 cells (Homo sapiens, UniProt Q9UM73, L1152R, cells depend on it); test: Ba/F3 dose escalation MTS viability assay; type: cell-based; conditions: 72 hours
From the text: as §1, §2

[10] = target: EML4-ALK L1196M transformed Ba/F3 cells (Homo sapiens, UniProt Q9UM73, L1196M, cells depend on it); test: Ba/F3 dose escalation MTS viability assay; conditions: read-out: IC50 L1196M, 72 hours
From the text: as §1, §2

[11] = tested on: EML4-ALK wt transformed Ba/F3 cells; test: Ba/F3 single point inhibition assay (MTS); type: cell-based; conditions: single dose 1 μM, 72 hours
From the text: as §1

[12] = target: EML4-ALK C1156Y transformed Ba/F3 cells (Homo sapiens, UniProt Q9UM73, C1156Y, cells depend on it); test: Ba/F3 dose escalation MTS viability assay; type: cell-based; conditions: 72 hours
From the text: as §1, §2

[13] = target: EML4-ALK^WT transformed Ba/F3 cells (Homo sapiens, UniProt Q9UM73); test: Ba/F3 dose escalation MTS viability assay; conditions: read-out: IC50 wt, 72 hours
From the text: as §1, §2

[14] = target: EML4-ALK G1269A transformed Ba/F3 cells (Homo sapiens, UniProt Q9UM73, G1269A, cells depend on it); test: Ba/F3 dose escalation MTS viability assay; type: cell-based; conditions: 72 hours
From the text: as §1, §2

[15] = target: EML4-ALK G1202R transformed Ba/F3 cells (Homo sapiens, UniProt Q9UM73, G1202R, cells depend on it); test: Ba/F3 dose escalation MTS viability assay; type: cell-based; conditions: 72 hours
From the text: as §1, §2

[16] = tested on: EML4-ALK^G1202R transformed Ba/F3 cells; test: Ba/F3 single point inhibition assay (MTS); type: cell-based; conditions: single dose 1 μM, 72 hours
From the text: as §1

[17] = mouse, in vivo, iv, 2 mg/kg, 8 h
[18] = target: panel of 456 kinases; test: KINOMESCAN kinase selectivity profiling; type: binding; conditions: screened at 1 μM

`CCc1cc2c(cc1N1CCC(N3CCOCC3)CC1)C(C)(C)c1[nH]c3cc(C#N)ccc3c1C2=O` [Alectinib] gave an IC50 [1] of 26 ± 27 nM, an IC50 ([2]; NCI-H3122, read-out: IC50 Tumor Cell Line H3122) of 7 ± 4 nM and an IC50 [3] of 11 nM. The IC50 [4] was 28.2 nM.

With `Cc1cc(Nc2ncc(Cl)c(Nc3ccccc3S(=O)(=O)C(C)C)n2)c(OC(C)C)cc1C1CCNCC1` [Ceritinib] the IC50 ([2]; NCI-H3122, Table 6, read-out: IC50 Tumor Cell Line H3122) was 13 ± 5 nM.

For `CCc1cc2c(cc1-c1cnn(CC(=O)N(C)C)c1)C(C)(C)c1[nH]c3cc(C#N)ccc3c1C2=O` [Compound 6, 2-(4-(3-cyano-9-ethyl-6,6-dimethyl-11-oxo-6,11-dihydro-5H-benzo[b]carbazol-8-yl)-1H-pyrazol-1-yl)-N,N-dimethylacetamide], the IC50 [5] was 678 ± 109 nM, the “inhibition of mutant EGFR PC9 cell line” value [6] was “not inhibited” and the IC50 [7] was 281 ± 1 nM.

`CCc1cc2c(cc1-c1cnoc1)C(C)(C)c1[nH]c3cc(C#N)ccc3c1C2=O` [Compound 10, 9-ethyl-8-(isoxazol-4-yl)-6,6-dimethyl-11-oxo-6,11-dihydro-5H-benzo[b]carbazole-3-carbonitrile] gave an IC50 [8] of 728 nM, an IC50 [9] of 345 nM and an IC50 [3] of 5.09 nM. The IC50 [10] was 634 nM, the “Percent viability of untreated control, wt” value (from here on “Percent viability … wt”) [11] was 2% and the IC50 [12] was 116 nM. It also gave an IC50 [13] of 59 nM, an IC50 [14] of 186 nM and an IC50 [4] of 14.5 nM. For the same compound, the IC50 [15] was 80 nM and the “Percent viability of untreated control, G1202R” value (from here on “Percent viability … G1202R”) [16] was 3%.

Compound `CCc1cc2c(cc1-c1cnn[nH]1)C(C)(C)c1[nH]c3cc(C#N)ccc3c1C2=O` [Compound 13, 9-ethyl-6,6-dimethyl-11-oxo-8-(1H-1,2,3-triazol-5-yl)-6,11-dihydro-5H-benzo[b]carbazole-3-carbonitrile] has an IC50 [8] of 1610 nM, an IC50 [9] of 345 nM and an IC50 [3] of 0.884 nM. For the same compound, the IC50 [10] was 629 nM, the “Percent viability … wt” value [11] was 6% and the IC50 [12] was 177 nM. The IC50 [13] was 115 nM, the IC50 [14] was 256 nM and the IC50 [4] was 7.46 nM. The IC50 [15] was 214 nM and the “Percent viability … G1202R” value [16] was 7%.

Work on `CCc1cc2c(cc1-c1cnn(CCN(C)C)c1)C(C)(C)c1[nH]c3cc(C#N)ccc3c1C2=O` [Compound 31, 8-(1-(2-(dimethylamino)ethyl)-1H-pyrazol-4-yl)-9-ethyl-6,6-dimethyl-11-oxo-6,11-dihydro-5H-benzo[b]carbazole-3-carbonitrile] yielded an IC50 [8] of 6 nM, an IC50 [9] of 548 nM and an IC50 [3] of 1.91 nM. The IC50 [10] was 80 nM, the “Percent viability … wt” value [11] was 1% and the IC50 [12] was 24 nM. The IC50 [13] was 2 nM, the IC50 [14] was 11 nM and the IC50 [4] was 6.6 nM. The IC50 [15] was 8 nM and the “Percent viability … G1202R” value [16] was 1%.

For `CCc1cc2c(cc1-c1cnn(CCCN(C)C)c1)C(C)(C)c1[nH]c3cc(C#N)ccc3c1C2=O` [Compound 32, 8-(1-(3-(dimethylamino)propyl)-1H-pyrazol-4-yl)-9-ethyl-6,6-dimethyl-11-oxo-6,11-dihydro-5H-benzo[b]carbazole-3-carbonitrile], the Conc. [17] was 80 nM, the “Percent viability … wt” value [11] was 0% and the KINOMESCAN interactions mapped [18] was 39. The “Percent viability … G1202R” value [16] was 0%.
